Laboratory results published in US10913922B2, “N-acylated methionine derivatives as food flavoring compounds” (Givaudan S.A., priority 2012, dated 2021).
“Also recorded” adds a separate entry of the source.

Columns and labels:
[1] = Expert taster evaluation in a mango juice drink; details: 1 ppm in mango juice drink base (8% sucrose, 0.1% citric acid, 1% clear mango juice, mango flavour 0.05%); base alone: fruity mango
Experimental: (§1) Samples were evaluated by expert tasters. Tasters were asked to describe the samples focusing on authentic taste, mouthfeel, fullness, salty-ness, salivation, umami, sweetness, juiciness, richness, long lastingness and fattiness
Comparison in a Mango Juice Drink
Base is 8% sucrose, 0.1% citric acid, 1% clear mango juice, proprietary mango flavour @ 0.05%

[2] = Expert taster evaluation in beef bouillon; details: base alone: salty, umami, powdery
Experimental: as §1
Comparison in Beef Bouillon
Base is Maggi beef bouillon 1 tablet in 500 ml of hot water

[3] = Expert taster evaluation in lemon beverage; details: 1 ppm in lemon beverage (water, 7% sucrose, 0.15% citric acid, lemon flavor), base alone: floral, citral
Experimental: as §1
Basis water, 7% sucrose, 0.15% citric acid, proprietary lemon flavor

[4] = Expert taster evaluation in orange beverage; details: 1 ppm in orange beverage (water, 7% sugar, 0.1% citric acid, orange flavour 0.06%); base alone: orange, fruity, slightly candy
Experimental: as §1
Base is water, 7% sugar, 0.1% citric acid, proprietary orange flavour @ 0.06%

[5] = 1 ppm in Maggi beef bouillon (1 tablet in 500 ml hot water)

Compound	taste description by expert tasters [1]	taste description by expert tasters [2, 5]	taste description by expert tasters ([2]; 25 ppb in Maggi beef bouillon)	taste description by expert tasters ([2]; 50 ppb in Maggi beef bouillon)	taste description by expert tasters [3]	taste description by expert tasters [4]
CCCCC/C=C\C/C=C\CCCCCCCC(=O)NC(CCSC)C(=O)O (centres unmarked) [C18:2-met]	fresh nice juicy	salivating salty, umami	–	–	–	–
CCCCCCCC/C=C\CCCCCCCC(=O)NC(CCSC)C(=O)O (centres unmarked) [C18:1-met]	sweeter, juicy, salivating	very strong salty impact and aftertaste; also recorded: very strong salty impact and aftertaste, more fatty, mouthfeel, lingering full bodied	more peppery, more salty	more salty, more bouillon taste	fresh, less floral, very juicy, very authentic	very juicy fresh, authentic, juicy
CCCCCCCCCCCCCCCC(=O)NC(CCSC)C(=O)O (centres unmarked) [C16:0-met]	fatty, full body, juicy, metallic	salty, full, nice salivating, lingering	–	–	–	slightly metallic, fresh
CCCCCC/C=C\CCCC(=O)NC(CCSC)C(=O)O (centres unmarked) [C12:1-met]	ripe full, more juicy, slightly metallic	more salty	–	–	fresh, slightly more citral	nice orange, fresh
CCCCCCCC(=O)N[C@@H](CCSC)C(=O)O [C8:0-met]	green fresh, no additional body	more salty, no additional fullness	–	–	–	–
